Key:
Candida albicans [1] = assay: Antifungal activity against Candida albicans ATCC MYA-1003 measured after 48 hrs by broth microdilution analysis; assay type: functional
Candida albicans [2] = assay: Antifungal activity against Candida albicans ATCC MYA-2876 measured after 48 hrs by broth microdilution analysis; assay type: functional
Candida albicans [3] = assay: Additive antifungal activity against Candida albicans ATCC 64124 assessed as fractional inhibitory concentration index measured for 72 hrs in presence of fluconazole; assay type: functional
Candida albicans [4] = assay: Antifungal activity against Candida albicans ATCC 64124 measured after 48 hrs by broth microdilution analysis; assay type: functional
Aspergillus terreus [5] = assay: Additive antifungal activity against Aspergillus terreus ATCC MYA-3633 assessed as fractional inhibitory concentration index measured for 72 hrs in presence of voriconazole; assay type: functional
Aspergillus terreus [6] = assay: Antifungal activity against Aspergillus terreus ATCC MYA-3633 measured after 48 hrs by broth microdilution analysis; assay type: functional
Candida albicans [7] = assay: Partial synergistic antifungal activity against Candida albicans ATCC 10231 assessed as fractional inhibitory concentration index measured for 72 hrs in presence of ketoconazole; assay type: functional
Candida albicans [8] = assay: Synergistic antifungal activity against Candida albicans ATCC 10231 assessed as compound MIC measured after 48 hrs in presence of posaconazole by checkboard based microplate reader analysis; assay type: functional
Candida albicans [9] = assay: Additive antifungal activity against Candida albicans ATCC MYA-1237 assessed as fractional inhibitory concentration index measured for 72 hrs in presence of posaconazole; assay type: functional
Candida albicans [10] = assay: Synergistic antifungal activity against Candida albicans ATCC 10231 assessed as compound MIC measured after 48 hrs in presence of fluconazole by checkboard based microplate reader analysis; assay type: functional
Candida albicans [11] = assay: Synergistic antifungal activity against Candida albicans ATCC 10231 assessed as fluconazole MIC measured after 48 hrs by checkboard based microplate reader analysis; assay type: functional
Candida albicans [12] = assay: Synergistic antifungal activity against Candida albicans ATCC 64124 assessed as compound MIC measured after 48 hrs in presence of voriconazole by checkboard based microplate reader analysis; assay type: functional
Candida albicans [13] = assay: Additive antifungal activity against Candida albicans ATCC 10231 assessed as fractional inhibitory concentration index measured for 72 hrs in presence of itraconazole; assay type: functional
Candida albicans [14] = assay: Additive antifungal activity against Candida albicans ATCC MYA-2876 assessed as fractional inhibitory concentration index measured for 72 hrs in presence of posaconazole; assay type: functional
Candida albicans [15] = assay: Synergistic antifungal activity against Candida albicans ATCC 64124 assessed as compound MIC measured after 48 hrs in presence of itraconazole by checkboard based microplate reader analysis; assay type: functional
Candida albicans [16] = assay: Antifungal activity against Candida albicans ATCC MYA-1237 measured after 48 hrs by broth microdilution analysis; assay type: functional
Candida albicans [17] = assay: Synergistic antifungal activity against Candida albicans ATCC 64124 assessed as compound MIC measured after 48 hrs in presence of ketoconazole by checkboard based microplate reader analysis; assay type: functional
Candida albicans [18] = assay: Additive antifungal activity against Candida albicans ATCC 90819 assessed as fractional inhibitory concentration index measured for 72 hrs in presence of posaconazole; assay type: functional
Candida albicans [19] = assay: Additive antifungal activity against Candida albicans ATCC MYA-2310 assessed as fractional inhibitory concentration index measured for 72 hrs in presence of voriconazole; assay type: functional
Candida albicans [20] = assay: Additive antifungal activity against Candida albicans ATCC MYA-1237 assessed as fractional inhibitory concentration index measured for 72 hrs in presence of voriconazole; assay type: functional
Candida albicans [21] = assay: Antifungal activity against Candida albicans ATCC MYA-2310 measured after 48 hrs by broth microdilution analysis; assay type: functional
Nakaseomyces glabratus [22] = assay: Additive antifungal activity against Candida glabrata ATCC 2001 assessed as fractional inhibitory concentration index measured for 72 hrs in presence of posaconazole; assay type: functional
Candida albicans [23] = assay: Additive antifungal activity against Candida albicans ATCC 64124 assessed as fractional inhibitory concentration index measured for 72 hrs in presence of itraconazole; assay type: functional
Candida albicans [24] = assay: Additive antifungal activity against Candida albicans MYA-1003 assessed as fractional inhibitory concentration index measured for 72 hrs in presence of voriconazole
Nakaseomyces glabratus [25] = assay: Antifungal activity against Candida glabrata ATCC 2001 measured after 48 hrs by broth microdilution analysis; assay type: functional
Candida albicans [26] = assay: Synergistic antifungal activity against Candida albicans ATCC 64124 assessed as compound MIC measured after 48 hrs in presence of posaconazole by checkboard based microplate reader analysis; assay type: functional
Candida albicans [27] = assay: Partial synergistic antifungal activity against Candida albicans ATCC 64124 assessed as fractional inhibitory concentration index measured for 72 hrs in presence of voriconazole; assay type: functional
Candida albicans [28] = assay: Synergistic antifungal activity against Candida albicans ATCC 10231 assessed as compound MIC measured after 48 hrs in presence of itraconazole by checkboard based microplate reader analysis; assay type: functional
Nakaseomyces glabratus [29] = assay: Additive antifungal activity against Candida glabrata ATCC 2001 assessed as fractional inhibitory concentration index measured for 72 hrs in presence of voriconazole; assay type: functional
Candida albicans [30] = assay: Synergistic antifungal activity against Candida albicans ATCC 10231 assessed as compound MIC measured after 48 hrs in presence of ketoconazole by checkboard based microplate reader analysis; assay type: functional
Candida albicans [31] = assay: Synergistic antifungal activity against Candida albicans ATCC 64124 assessed as compound MIC measured after 48 hrs in presence of fluconazole by checkboard based microplate reader analysis; assay type: functional
Candida albicans [32] = assay: Additive antifungal activity against Candida albicans ATCC 90819 assessed as fractional inhibitory concentration index measured for 72 hrs in presence of voriconazole; assay type: functional
Candida albicans [33] = assay: Antifungal activity against Candida albicans ATCC 10231 measured after 48 hrs by broth microdilution analysis; assay type: functional
Candida albicans [34] = assay: Additive antifungal activity against Candida albicans ATCC MYA-2310 assessed as fractional inhibitory concentration index measured for 72 hrs in presence of posaconazole; assay type: functional
Candida albicans [35] = assay: Additive antifungal activity against Candida albicans ATCC MYA-2876 assessed as fractional inhibitory concentration index measured for 72 hrs in presence of voriconazole; assay type: functional
Candida albicans [36] = assay: Partial synergistic antifungal activity against Candida albicans ATCC 64124 assessed as fractional inhibitory concentration index measured for 72 hrs in presence of ketoconazole; assay type: functional
Nakaseomyces glabratus [37] = assay: Synergistic antifungal activity against Candida glabrata ATCC 2001 assessed as fractional inhibitory concentration index measured for 72 hrs in presence of posaconazole; assay type: functional
Candida albicans [38] = assay: Additive antifungal activity against Candida albicans ATCC 10231 assessed as fractional inhibitory concentration index measured for 72 hrs in presence of fluconazole; assay type: functional
Candida albicans [39] = assay: Antifungal activity against Candida albicans ATCC 90819 measured after 48 hrs by broth microdilution analysis; assay type: functional
Candida albicans [40] = assay: Synergistic antifungal activity against Candida albicans ATCC 10231 assessed as compound MIC measured after 48 hrs in presence of voriconazole by checkboard based microplate reader analysis; assay type: functional

O=C(CCCN1CCC(O)(c2ccc(Br)cc2)CC1)c1ccc(Br)cc1
0.63: fractional inhibitory concentration index (FICI) (Candida albicans [27])
32 µg/mL: MIC (Candida albicans [8]) | MIC (Candida albicans [12]) | MIC (Candida albicans [40])
> 64 µg/mL: MIC (Candida albicans [1]) | MIC (Candida albicans [2]) | MIC (Candida albicans [4]) | MIC (Aspergillus terreus [6]) | MIC (Candida albicans [10]) | MIC (Candida albicans [15]) | MIC (Candida albicans [16]) | MIC (Candida albicans [21]) | MIC (Nakaseomyces glabratus [25]) | MIC (Candida albicans [31]) | MIC (Candida albicans [33]) | MIC (Candida albicans [39])
0.52: fractional inhibitory concentration index (FICI) (Candida albicans [7]) | fractional inhibitory concentration index (FICI) (Candida albicans [36])
1.5: fractional inhibitory concentration index (FICI) (Candida albicans [13])
0.38: fractional inhibitory concentration index (FICI) (Nakaseomyces glabratus [22]) | fractional inhibitory concentration index (FICI) (Nakaseomyces glabratus [37])
2: fractional inhibitory concentration index (FICI) (Candida albicans [3]) | fractional inhibitory concentration index (FICI) (Aspergillus terreus [5]) | fractional inhibitory concentration index (FICI) (Candida albicans [9]) | fractional inhibitory concentration index (FICI) (Candida albicans [14]) | fractional inhibitory concentration index (FICI) (Candida albicans [18]) | fractional inhibitory concentration index (FICI) (Candida albicans [19]) | fractional inhibitory concentration index (FICI) (Candida albicans [20]) | fractional inhibitory concentration index (FICI) (Candida albicans [23]) | fractional inhibitory concentration index (FICI) (Candida albicans [24]) | fractional inhibitory concentration index (FICI) (Nakaseomyces glabratus [29]) | fractional inhibitory concentration index (FICI) (Candida albicans [32]) | fractional inhibitory concentration index (FICI) (Candida albicans [34]) | fractional inhibitory concentration index (FICI) (Candida albicans [35]) | fractional inhibitory concentration index (FICI) (Candida albicans [38])
> 32 µg/mL: MIC (Candida albicans [11])
1 µg/mL: MIC (Candida albicans [17]) | MIC (Candida albicans [30])
64 µg/mL: MIC (Candida albicans [28])
16 µg/mL: MIC (Candida albicans [26])
